Experimental data taken from US20260118345A1, “METHOD OF EVALUATING INTERCELLULAR INTERACTIONS IN NEUROINFLAMMATION” (FUJIFILM Corporation, priority 2023, published 2026).

Key:
Type in all cases: cell-based, human
NF-κB [1] = assay: NF-κB localization after LPS stimulation, two-cell-type co-culture of nerve and astrocytes; conditions: co-culture without microglia, all time points
NF-κB [2] = assay: NF-κB localization by immunostaining after LPS stimulation, two-dimensional three-cell-type co-culture of astrocytes, neurons and microglia; conditions: LPS 100 ng/mL, no R-7050
Experimental: Matrigel basement membrane matrix (Corning, 356234) diluted 120-fold with DMEM/F12 (Life technologies, 11320-033) was added to a 96-well plate at 65 μL/well and allowed to stand at 4° C. After 24 hours, the culture medium was replaced with a progenitor cell culture medium and used.
Astrocyte precursor cells (XCell Science, XCS-AP-001-1V) were seeded in a 96-well plate at a density of 5×10^4 cells/well and cultured under the conditions of 37° C. and 5% CO2. The next day, the culture medium was replaced with the differentiation-inducing culture medium and further cultured for 5 days to differentiate into astrocytes.
The neurons were produced by forcing expression of the Ngn2 gene from iPS cells (WO2014/148646A; and Zhang Y, et al., Neuron, 78:785-98, 2013), and the cells that had been frozen and stored were used. The cells that had been frozen and stored were thawed in a warm bath at 37° C., and after thawing, the cells were added to the co-culture medium and centrifuged at 600×g at room temperature for 5 minutes. After centrifugation, the supernatant was removed, the cells were suspended in 1 mL of the co-culture medium, and the number of cells was counted.
As the microglia, iPS cell-derived microglia (iCell (registered trademark) Microglia, FCDI, C1110) were used. The cells that had been frozen and stored were thawed in a warm bath at 37° C., and after thawing, the cells were added to the co-culture medium and centrifuged at 600×g at room temperature for 5 minutes. After centrifugation, the supernatant was removed, the cells were suspended in 1 mL of the co-culture medium, and the number of cells was counted.
The neurons and the microglia were mixed in a ratio of 3:1 and seeded on the astrocytes at 4×10^4 cells/well. The cells were cultured under the conditions of 37° C. and 5% CO2, and half of the culture medium was replaced three times a week.
Microglia were specifically stimulated by adding LPS (FUJIFILM Wako Pure Chemical Corporation, 124-05151) at 100 ng/mL to the two-dimensional co-culture that had been cultured for 4 weeks. The cells were fixed by treating, for 30 minutes, with a formaldehyde solution (FUJIFILM Wako Pure Chemical Corporation, 061-00416) diluted 10-fold with PBS(−) (FUJIFILM Wako Pure Chemical Corporation, 166-23555) without treatment, and at 0.5 hours, 1 hour, 3 hours, 6 hours, and 24 hours after the treatment.
In addition, in the two-dimensional co-culture that had been cultured for 19 days, LPS (FUJIFILM Wako Pure Chemical Corporation, 124-05151) was added at 100 ng/ml and R-7050 (Cayman Chemical Company, 16870), which is a TNFR1 inhibitor, was added at 10 μmol/L, and the effect of TNF-α on the intercellular interaction induced by LPS stimulation was evaluated. The cells were fixed by treating, for 30 minutes, with a formaldehyde solution (FUJIFILM Wako Pure Chemical Corporation, 061-00416) diluted 10-fold with PBS (−) (FUJIFILM Wako Pure Chemical Corporation, 166-23555) without treatment, and at 0.5 hours, 1 hour, 3 hours, 6 hours, and 24 hours after the treatment.
The fixed cells were washed with PBS (−), and blocking and permeabilization were performed by treating with a solution (1% BSA/0.2% Triton X-100) in which BSA (Sigma-Aldrich, A4161) and Triton (registered trademark) X-100 (BioVision, 2104-100) were diluted to 1% and 0.2% with PBS (−) for 30 minutes. […]

[3] = tested on: three-cell-type co-culture of neurons, astrocytes, and microglia; assay: Neural activity by calcium imaging (BPM), two-dimensional three-cell-type co-culture of neurons, astrocytes and microglia; conditions: 24 hours after stimulation (TNF-α 7.5 ng/mL or LPS 100 ng/mL)
Experimental: Matrigel basement membrane matrix (Corning, 356234) diluted 120-fold with DMEM/F12 (Life technologies, 11320-033) was added to a 96-well plate at 65 μL/well and allowed to stand at 4° C. After 24 hours, the culture medium was replaced with a progenitor cell culture medium and used. Astrocyte precursor cells (XCell Science, XCS-AP-001-1V) were seeded in a 96-well plate at a density of 6×10^4 cells/well, cultured under the conditions of 37° C. and 5% CO2, after culture medium was replaced with the differentiation induction culture medium, further cultured for 5 days to differentiate into astrocytes. […] After centrifugation, the supernatant was removed, the cells were suspended in 1 mL of the co-culture medium, and the number of cells was counted. […] After centrifugation, the supernatant was removed, the cells were suspended in 1 mL of the co-culture medium, and the number of cells was counted. […] In addition, at 24 hours after the stimulation with LPS or TNF-α, the neural activity was evaluated by calcium imaging. […] After incubating for 1 hour under conditions of 37° C. and 5% CO2, the solution was replaced with a warmed (37° C.) recording solution, and the fluorescence was measured for 10 minutes with FDSS (registered trademark)/μcell (Hamamatsu Photonics K. K., C13299). […]

STAT1 = STAT1 localization after LPS stimulation, two-cell-type co-culture of nerve and astrocytes; conditions: co-culture without microglia, all time points

lipopolysaccharide [LPS]
nuclear translocation of NF-κB (NF-κB [1]): not observed at any time
nuclear translocation of NF-κB (NF-κB [2]; 0.5 hours and 1 hours after the LPS treatment): only some cells
nuclear translocation of NF-κB (NF-κB [2]; 3 hours and 6 hours after the LPS treatment): many cells
BPM (the number of peaks of calcium oscillation per minute) as compared with the control [3]: increase
nuclear translocation of STAT1 (STAT1): not observed at any time
